“And” between values parts separate entries of the source, which are not always exact repeats. Identical values can stand only once. Marks after values point to notes of the source that are not given here.
How the values were obtained:
Type in all cases: cell-based
[1] = test system: multi-species biofilm (beneficial/commensal species, periodontal pathogens, cariogenic pathogens); assay: Multi-species biofilm composition, relative proportions and group changes
Description: Biofilms are grown vertically on Calcium Deficient Hydroxyapatite (CAD-HA) disks (Hitemco Medical, Old Bethpage, USA) using the Amsterdam Active Adhesion model. […] After this 24 h, disks are rinsed 3 times a day for 3 minutes (RT, 250 rpm), for 3 consecutive days, by transferring the lid containing the disks to a new 24-well plate containing 2 mL/well of the appropriate substrate solution. As a negative control, PBS (pH 5.7) without substrate supplementation is used. N-acetyl-D-glucosamine (NADG), α-D-lactose, D-(+)-trehalose and D-(+)-raffinose are selected to determine their effects on multi-species biofilm composition. Repeated rinsing of the biofilms with the substrates at a concentration of 1 M results in a significant decrease in absolute numbers in at least four of the pathogenic bacterial species tested in the assay, in comparison to the control, the results of which are described in Table 1 below. Note, NADG decreased absolute numbers of S. sobrinus. Absolute abundances of bacterial species are shown as mean ± SD (n = 3) logarithmic values of the genome equivalents per millilitre (log(Geq/mL)).

[2] = test system: human oral keratinocytes (HOK-18A); assay: Inflammatory mediator gene expression in keratinocytes exposed to substrate-treated biofilms (SYBR RT-qPCR); settings: relative to control, n = 3
Description: Cultures of immortalized human oral keratinocytes (HOK-18A) are grown. […] The IL-8 levels in the cellular supernatant are determined as well. RNA is converted to cDNA and relative expression of inflammatory mediator genes is determined as described above with respect to the cellular housekeeping gene β-actin.
In HOKs exposed to substrate-treated (substrate concentrations of […]) multi-species biofilms, there are mostly decreases in inflammatory mediator gene expression as measured via SYBR RT-qPCR, the results of which are detailed in Table 7:
Fold changes in inflammatory mediator gene expression from human oral keratinocytes (HOK-18A) exposed to substrate-treated multi-species biofilms are determined relatively to the control through the 2^^-ΔΔCt method and are shown as the geometric mean (C.I.) (n = 3) of the 2^^-ΔΔCt values. All substrates are dissolved in PBS at a concentration of 1 M (upper part) or 1%(w/v) (lower part). Values between 0 and 1 represent relative downregulation, values >1 represent relative upregulation.

[3] = test system: P. intermedia virulence genes; assay: Virulence gene expression in multi-species biofilm (SYBR RT-qPCR); settings: relative to control = 1
Description: (§1) Biofilms are grown vertically on Calcium Deficient Hydroxyapatite (CAD-HA) disks (Hitemco Medical, Old Bethpage, USA) using the Amsterdam Active Adhesion model. Biofilms are allowed to establish during 24 h (37° C., 170 rpm) under microaerophilic conditions (6% O2, 7% CO2, 7% H2, 80% N2). After this 24 h, disks are rinsed 3 times a day for 3 minutes (RT, 250 rpm), for 3 consecutive days, by transferring the lid containing the disks to a new 24-well plate containing 2 mL/well of the appropriate substrate solution. As a negative control, PBS (pH 5.7) without substrate supplementation is used.
The virulence of the substrate-treated multi-species biofilms are evaluated by analyzing the relative expression of 33 genes that are recognized as being related to some form of virulence and from 4 periodontal pathogens.
Expression of bacterial virulence genes is analyzed through SYBR RT-qPCR and normalized for bacterial housekeeping gene expression. […] These effects are illustrated in Tables 6a and 6b:
Note, for Table 6d, fold changes in virulence gene expression are determined relatively to the control condition through the 2^^-ΔΔCt method and are shown as the geometric mean (C.I.) (n = 3) of the 2^^-ΔΔCt values. All substrates are dissolved in PBS at a concentration of 1 M (upper part) or 1%(w/v) (lower part). Values between 0 and 1 represent relative downregulation, values >1 represent relative upregulation. […] NADG: N-acetyl-D-glucosamine; C.I.: 95% confidence interval.

F. nucleatum = assay: Multi-species biofilm composition, absolute abundance (Geq/mL); settings: repeated rinsing
Description: as §1
(§2) N-acetyl-D-glucosamine (NADG), α-D-lactose, D-(+)-trehalose and D-(+)-raffinose are selected to determine their effects on multi-species biofilm composition. […] decrease in absolute numbers in at least four of the pathogenic bacterial species tested in the assay, in comparison to the control, the results of which are described in Table 1 below. Note, NADG decreased absolute numbers of S. sobrinus. Absolute abundances of bacterial species are shown as mean ± SD (n = 3) logarithmic values of the genome equivalents per millilitre (log(Geq/mL)).

S. salivarius = assay: as above; settings: repeated rinsing
Description: as §1, §2

A. viscosus = assay: as above; settings: repeated rinsing
Description: as §1, §2

S. mutans = assay: as above; settings: repeated rinsing
Description: as §1, §2

S. sanguinis = assay: as above; settings: repeated rinsing
Description: as §1, §2

V. parvula = assay: as above; settings: repeated rinsing
Description: as §1, §2

[4] = Table 3, separate experiments, concentration not given
[5] = HOK-18A exposed to biofilms treated with substrate 1% (w/v)
[6] = HOK-18A exposed to biofilms treated with substrate 1 M
[7] = lower part of Table 6d, head prints 1 M (lower part 1%(w/v))
[8] = upper part of Table 6d, substrate 1 M, n = 3

SMILES: CC(=O)N[C@H]1C(O)O[C@H](CO)[C@@H](O)[C@@H]1O (stereo partly drawn) [NADG, N-acetyl-D-glucosamine]
- relative proportion of beneficial or commensal species in biofilm ([1]; Table 1a, substrate 1 M): 97.86±1.11 % (Geq/mL) and 97.86 (+/- 1.11)^∗ % (Geq/mL)
- relative proportion of cariogenic pathogens in biofilm ([1]; Table 1a, substrate 1 M): 0.68±0.33 % (Geq/mL) and 0.68 (+/- 0.33) % (Geq/mL)
- relative proportion of periodontal pathogens in biofilm ([1]; Table 1a, substrate 1 M): 1.46±0.97 % (Geq/mL) and 1.46 (+/- 0.97)^∗ % (Geq/mL)
- relative proportion of beneficials/commensals in biofilm [1, 4]: 60.07 (+/- 8.25) % (Geq/mL)
- relative proportion of cariogenic pathogens in biofilm [1, 4]: 0.66±0.27 % (Geq/mL) and 0.66 (+/- 0.27^∗) % (Geq/mL)
- relative proportion of periodontal pathogens in biofilm [1, 4]: 39.27 (+/- 7.98) % (Geq/mL)
- fold change in IL-1β gene expression, geometric mean (C.I.) [2, 5]: 0.71 (0.38-1.33)^∗ fold
- fold change in IL-6 gene expression, geometric mean (C.I.) [2, 5]: 0.73 (0.58-0.93)^∗ fold
- fold change in IL-8 gene expression, geometric mean (C.I.) [2, 5]: 1.00 (0.78-1.27) fold
- fold change in MMP-8 gene expression, geometric mean (C.I.) [2, 5]: 0.52 (0.17-1.6)^∗ fold
- fold change in TNF-α gene expression, geometric mean (C.I.) [2, 5]: 0.71 (0.28-1.35)^∗ fold
- fold change in IL-1β gene expression, geometric mean (C.I.) [2, 6]: 0.75 (0.55-1.02) fold
- fold change in IL-6 gene expression, geometric mean (C.I.) [2, 6]: 0.57 (0.46-0.71) fold
- fold change in IL-8 gene expression, geometric mean (C.I.) [2, 6]: 0.14 (0.06-0.36)^∗ fold
- fold change in MMP-8 gene expression, geometric mean (C.I.) [2, 6]: 1.28 (0.79-2.08) fold
- fold change in TNF-α gene expression, geometric mean (C.I.) [2, 6]: 0.89 (0.59-1.34) fold
- fold change in DnaJ expression, geometric mean (95% C.I.) [3, 7]: 0.70 (0.50-0.99) fold
- fold change in DnaK expression, geometric mean (95% C.I.) [3, 7]: 0.77 (0.34-1.77) fold
- fold change in ECF expression, geometric mean (95% C.I.) [3, 7]: 0.48 (0.11-2.02) fold
- fold change in GroES expression, geometric mean (95% C.I.) [3, 7]: 0.75 (0.49-1.14) fold
- fold change in HtpG expression, geometric mean (95% C.I.) [3, 7]: 0.46 (0.22-0.94)* fold
- fold change in KpsD expression, geometric mean (95% C.I.) [3, 7]: 0.78 (0.37-1.62) fold
- fold change in adpc expression, geometric mean (95% C.I.) [3, 7]: 0.67 (0.64-0.69) fold
- fold change in clpB expression, geometric mean (95% C.I.) [3, 7]: 1.06 (0.58-1.96) fold
- fold change in inpA expression, geometric mean (95% C.I.) [3, 7]: 0.53 (0.24-1.17)* fold
- fold change in phg expression, geometric mean (95% C.I.) [3, 7]: 0.69 (0.47-1.00) fold
- fold change in DnaJ expression, geometric mean (95% C.I.) [3, 8]: 0.64 (0.35-1.16) fold
- fold change in DnaK expression, geometric mean (95% C.I.) [3, 8]: 2.34 (1.23-4.43)* fold
- fold change in ECF expression, geometric mean (95% C.I.) [3, 8]: 20.32 (4.81-85.88)^∗ fold
- fold change in GroES expression, geometric mean (95% C.I.) [3, 8]: 1.86 (1.38-2.50) fold
- fold change in HtpG expression, geometric mean (95% C.I.) [3, 8]: 3.40 (2.27-5.08)* fold
- fold change in KpsD expression, geometric mean (95% C.I.) [3, 8]: 1.72 (0.62-4.72) fold
- fold change in adpc expression, geometric mean (95% C.I.) [3, 8]: 2.65 (1.25-5.62)* fold
- fold change in clpB expression, geometric mean (95% C.I.) [3, 8]: 2.03 (0.94-4.41) fold
- fold change in inpA expression, geometric mean (95% C.I.) [3, 8]: 4.52 (4.14-4.94)^∗ fold
- fold change in phg expression, geometric mean (95% C.I.) [3, 8]: 0.57 (0.38-0.85)* fold
- absolute abundance of F. nucleatum (Fn), mean ± SD log (Geq/mL) (F. nucleatum; substrate 1% (w/v)): 9.41 ± 0.19 log (Geq/mL)
- absolute abundance of F. nucleatum (Fn), mean ± SD log (Geq/mL) (F. nucleatum; substrate 1 M in PBS, n = 3): 7.22 ± 0.28^∗ log (Geq/mL)
- absolute abundance of S. salivarius, mean ± SD log (Geq/mL) (S. salivarius; substrate 1% (w/v)): 2.65 ± 0.00 log (Geq/mL)
- absolute abundance of S. salivarius, mean ± SD log (Geq/mL) (S. salivarius; substrate 1 M in PBS, n = 3): 6.40 ± 0.29^∗ log (Geq/mL)
- absolute abundance of A. viscosus (Av), mean ± SD log (Geq/mL) (A. viscosus; substrate 1% (w/v)): 7.83 ± 0.31 log (Geq/mL)
- absolute abundance of A. viscosus (Av), mean ± SD log (Geq/mL) (A. viscosus; substrate 1 M in PBS, n = 3): 6.72 ± 0.22 log (Geq/mL)
- absolute abundance of S. mutans, mean ± SD log (Geq/mL) (S. mutans; substrate 1% (w/v)): 7.83 ± 0.23 log (Geq/mL)
- absolute abundance of S. mutans, mean ± SD log (Geq/mL) (S. mutans; substrate 1 M in PBS, n = 3): 7.96 ± 0.10 log (Geq/mL)
- absolute abundance of S. sanguinis, mean ± SD log (Geq/mL) (S. sanguinis; substrate 1% (w/v)): 8.40 ± 0.11 log (Geq/mL)
- absolute abundance of S. sanguinis, mean ± SD log (Geq/mL) (S. sanguinis; substrate 1 M in PBS, n = 3): 6.43 ± 0.94 log (Geq/mL)
- absolute abundance of V. parvula (VP), mean ± SD log (Geq/mL) (V. parvula; substrate 1% (w/v)): 9.77 ± 0.19 log (Geq/mL)
- absolute abundance of V. parvula (VP), mean ± SD log (Geq/mL) (V. parvula; substrate 1 M in PBS, n = 3): 9.91 ± 0.19 log (Geq/mL)
